In patent EP0496332A1, “Alpha-aminoquinolinoyl-[3]-penicillines, process for their preparation and their use as antibacterial agents” (ARZNEIMITTELWERK DRESDEN GmbH, priority 1991, dated 1992):
In brackets after ≈: the same amount, converted by molar mass.

Columns and labels:
Experiment in all cases: In-vitro test, inhibitory concentration by dilution series
Format in all cases: cell-based
[1] = test system: Enterobacter cloacae; settings: XIII = Enterobacter cloacae, Laborstämme; step = concentration with no visible growth; read-out: Hemmkonzentration nach Verdünnung (Verdünnungsreihe) (converted)
Excerpt: (§1) Die antibiotische Wirksamkeit erfindungsgemäßer Verbindungen wurde in der üblichen Weise durch Ermittlung der Hemmkonzentrationen nach Verdünnung ermittelt.
(§2) Die erhaltenen Ergebnisse sind in der nachstehenden Tabelle zusammengefaßt.

[2] = test system: Enterokokken; settings: XI = Enterokokken, Laborstämme; step = concentration with no visible growth; read-out: Hemmkonzentration nach Verdünnung (Verdünnungsreihe) (converted)
Excerpt: as §1, §2

[3] = test system: Staphylococcus aureus SG 511; settings: SG511; II = Staphylococcus aureus SG 511; step = concentration with no visible growth; read-out: Hemmkonzentration nach Verdünnung (Verdünnungsreihe) (converted)
Excerpt: as §1, §2

[4] = test system: Escherichia coli; settings: XII = Escherichia coli, Laborstämme; step = concentration with no visible growth; read-out: Hemmkonzentration nach Verdünnung (Verdünnungsreihe) (converted)
Excerpt: as §1, §2

[5] = test system: Klebsiella pneumoniae SG 117; settings: SG117; VII = Klebsiella pneumoniae SG 117; step = concentration with no visible growth; read-out: Hemmkonzentration nach Verdünnung (Verdünnungsreihe) (converted)
Excerpt: as §1, §2

[6] = test system: Citrobacter freudii; settings: XIV = Citrobacter freudii, Laborstämme; step = concentration with no visible growth; read-out: Hemmkonzentration nach Verdünnung (Verdünnungsreihe) (converted)
Excerpt: as §1, §2

[7] = test system: Pseudomonas aeruginosa NCTC 10701; settings: NCTC10701; IV = Pseudomonas aeruginosa NCTC 10701; step = concentration with no visible growth; read-out: Hemmkonzentration nach Verdünnung (Verdünnungsreihe) (converted)
Excerpt: as §1, §2

[8] = test system: Salmonella gallinarium ATCC 9184; settings: ATCC9184; VI = Salmonella gallinarium ATCC 9184; step = concentration with no visible growth; read-out: Hemmkonzentration nach Verdünnung (Verdünnungsreihe) (converted)
Excerpt: as §1, §2

[9] = test system: Serratia marcescens SG 621; settings: SG621; VIII = Serratia marcescens SG 621; step = concentration with no visible growth; read-out: Hemmkonzentration nach Verdünnung (Verdünnungsreihe) (converted)
Excerpt: as §1, §2

[10] = test system: Proteus vulgaris OX 19; settings: OX19; III = Proteus vulgaris OX 19; step = concentration with no visible growth; read-out: Hemmkonzentration nach Verdünnung (Verdünnungsreihe) (converted)
Excerpt: as §1, §2

[11] = test system: Staphylococcus epidermidis; settings: X = Staphylococcus epidermidis, Laborstämme; step = concentration with no visible growth; read-out: Hemmkonzentration nach Verdünnung (Verdünnungsreihe) (converted)
Excerpt: as §1, §2

[12] = test system: Staphylococcus aureus; settings: IX = Staphylococcus aureus, Laborstämme; step = concentration with no visible growth; read-out: Hemmkonzentration nach Verdünnung (Verdünnungsreihe) (converted)
Excerpt: as §1, §2

[13] = test system: Bacillus subtilis SG 119; settings: SG119; I = Bacillus subtilis SG 119; step = concentration with no visible growth; read-out: Hemmkonzentration nach Verdünnung (Verdünnungsreihe) (converted)
Excerpt: as §1, §2

[14] = test system: Pseudomonas aeruginosa SG 137; settings: SG137; V = Pseudomonas aeruginosa SG 137; step = concentration with no visible growth; read-out: Hemmkonzentration nach Verdünnung (Verdünnungsreihe) (converted)
Excerpt: as §1, §2

Q: With CC(C)COC(=O)Oc1c(C(=O)N[C@@H](C(=O)N[C@@H]2C(=O)N3[C@@H]2SC(C)(C)[C@@H]3C(=O)O)c2ccccc2)cnc2ccc(C(C)C)cc12 [Beisp. 11, 6-[D-(-)-α-([4'-Isobutoxycarbonyloxy-6'-isopropyl-chinolinoyl-3']-carboxamido)-α-phenylacetamido]-penicillansäure-Natriumsalz] as the compound, how does the MIC [1] read?
A: 12.5 µM (≈ 8.28 µg/mL)

Q: What about the MIC [2] of the same compound?
A: 12.5 µM (≈ 8.28 µg/mL)

Q: And the MIC [3]?
A: 3.12 µM (≈ 2.07 µg/mL)

Q: What about the MIC [4] of the same compound?
A: 3.12 µM (≈ 2.07 µg/mL)

Q: And the MIC [5]?
A: 3.12 µM (≈ 2.07 µg/mL)

Q: And the MIC [6]?
A: 12.5 µM (≈ 8.28 µg/mL)

Q: And the MIC [7]?
A: 1.56 µM (≈ 1.03 µg/mL)

Q: And the MIC [8]?
A: 3.12 µM (≈ 2.07 µg/mL)

Q: What about the MIC [9] of the same compound?
A: 3.12 µM (≈ 2.07 µg/mL)

Q: And the MIC [10]?
A: 0.78 µM (≈ 0.517 µg/mL)

Q: What about the MIC [11] of the same compound?
A: 12.5 µM (≈ 8.28 µg/mL)

Q: And the MIC [12]?
A: 25 µM (≈ 16.6 µg/mL)

Q: And the MIC [13]?
A: 3.12 µM (≈ 2.07 µg/mL)

Q: And the MIC [14]?
A: 12.5 µM (≈ 8.28 µg/mL)

Q: CCc1cc2c(OC(=O)OCC(C)C)c(C(=O)N[C@@H](C(=O)N[C@@H]3C(=O)N4[C@@H]3SC(C)(C)[C@@H]4C(=O)O)c3ccccc3)cnc2cc1COc1ccc(Cl)c(C)c1 [Beisp. 17, 6-[D-(-)-α-([4'-Isobutoxycarbonyloxy-6'-ethyl-7'-(3''-methyl-4''-chlor)-phenoxymethylen-chinolinoyl-3']-carboxamido)-α-phenylacetamido]-penicillansäure-Natriumsalz] was tested. Which MIC [1] did it give?
A: 6.25 µM (≈ 5.02 µg/mL)

Q: And the MIC [2]?
A: 25 µM (≈ 20.1 µg/mL)

Q: And the MIC [3]?
A: 1.56 µM (≈ 1.25 µg/mL)

Q: What about the MIC [4] of the same compound?
A: 1.56 µM (≈ 1.25 µg/mL)

Q: And the MIC [5]?
A: 0.39 µM (≈ 0.313 µg/mL)

Q: What about the MIC [6] of the same compound?
A: 6.25 µM (≈ 5.02 µg/mL)

Q: And the MIC [7]?
A: 6.25 µM (≈ 5.02 µg/mL)

Q: And the MIC [8]?
A: 3.12 µM (≈ 2.51 µg/mL)

Q: And the MIC [9]?
A: 1.56 µM (≈ 1.25 µg/mL)

Q: And the MIC [10]?
A: 0.78 µM (≈ 0.627 µg/mL)

Q: And the MIC [11]?
A: 6.25 µM (≈ 5.02 µg/mL)

Q: What about the MIC [12] of the same compound?
A: 25 µM (≈ 20.1 µg/mL)

Q: And the MIC [13]?
A: 1.56 µM (≈ 1.25 µg/mL)

Q: And the MIC [14]?
A: 6.25 µM (≈ 5.02 µg/mL)

Q: How did the MIC [1] turn out when CCCCOCc1cc2ncc(C(=O)N[C@@H](C(=O)N[C@@H]3C(=O)N4[C@@H]3SC(C)(C)[C@@H]4C(=O)O)c3ccccc3)c(OC(=O)OCC)c2cc1CC [Beisp. 4, 6-[D-(-)-α-([4'-Ethoxycarbonyloxy-6'-ethyl-7'-n-butoxymethylen-chinolinoyl-3']-carboxamido)-α-phenylacetamido]-penicillansäure-Natriumsalz] was run?
A: 3.12 µM (≈ 2.21 µg/mL)

Q: What about the MIC [2] of the same compound?
A: 6.25 µM (≈ 4.42 µg/mL)

Q: What about the MIC [3] of the same compound?
A: 0.78 µM (≈ 0.551 µg/mL)

Q: And the MIC [4]?
A: 1.56 µM (≈ 1.1 µg/mL)

Q: And the MIC [5]?
A: 1.56 µM (≈ 1.1 µg/mL)

Q: And the MIC [6]?
A: 6.25 µM (≈ 4.42 µg/mL)

Q: What about the MIC [7] of the same compound?
A: 1.56 µM (≈ 1.1 µg/mL)

Q: What about the MIC [8] of the same compound?
A: 1.56 µM (≈ 1.1 µg/mL)

Q: And the MIC [9]?
A: 1.56 µM (≈ 1.1 µg/mL)

Q: And the MIC [10]?
A: 0.78 µM (≈ 0.551 µg/mL)

Q: And the MIC [11]?
A: 3.12 µM (≈ 2.21 µg/mL)

Q: And the MIC [12]?
A: 12.5 µM (≈ 8.84 µg/mL)

Q: And the MIC [13]?
A: 0.39 µM (≈ 0.276 µg/mL)

Q: What about the MIC [14] of the same compound?
A: 3.12 µM (≈ 2.21 µg/mL)

Q: How did the MIC [1] turn out when CC1(C)S[C@@H]2[C@H](NC(=O)[C@H](N)c3ccccc3)C(=O)N2[C@H]1C(=O)O [Ampicillin, reference compound] was run?
A: > 200 µM

Q: What about the MIC [2] of the same compound?
A: 6.25 µM (≈ 2.18 µg/mL)

Q: And the MIC [3]?
A: 0.78 µM (≈ 0.273 µg/mL)

Q: What about the MIC [4] of the same compound?
A: 12.5 µM (≈ 4.37 µg/mL)

Q: And the MIC [5]?
A: 12.5 µM (≈ 4.37 µg/mL)

Q: And the MIC [6]?
A: > 200 µM

Q: What about the MIC [7] of the same compound?
A: 200 µM (≈ 69.9 µg/mL)

Q: What about the MIC [8] of the same compound?
A: 0.78 µM (≈ 0.273 µg/mL)

Q: And the MIC [9]?
A: 50 µM (≈ 17.5 µg/mL)

Q: And the MIC [10]?
A: 12.5 µM (≈ 4.37 µg/mL)

Q: And the MIC [11]?
A: 6.25 µM (≈ 2.18 µg/mL)

Q: And the MIC [12]?
A: 12.5 µM (≈ 4.37 µg/mL)

Q: And the MIC [13]?
A: 0.2 µM (≈ 0.0699 µg/mL)

Q: What about the MIC [14] of the same compound?
A: > 200 µM

Q: Which results are given for CCOCc1cc2ncc(C(=O)N[C@@H](C(=O)N[C@@H]3C(=O)N4[C@@H]3SC(C)(C)[C@@H]4C(=O)O)c3ccccc3)c(OC(=O)OCC)c2cc1CC [Beisp. 6, 6-[D-(-)-α-([4'-Ethoxycarbonyloxy-6'-ethyl-7'-ethoxy-methylen-chinolinoyl-3']-carboxamido)-α-phenylacetamido]-penicillansäure-Natriumsalz]?
A: MIC [1]: 3.12 µM (≈ 2.12 µg/mL); MIC [2]: 12.5 µM (≈ 8.48 µg/mL); MIC [3]: 1.56 µM (≈ 1.06 µg/mL); MIC [4]: 1.56 µM (≈ 1.06 µg/mL); MIC [5]: 0.78 µM (≈ 0.529 µg/mL); MIC [6]: 3.12 µM (≈ 2.12 µg/mL); MIC [7]: 0.78 µM (≈ 0.529 µg/mL); MIC [8]: 1.56 µM (≈ 1.06 µg/mL); MIC [9]: 1.56 µM (≈ 1.06 µg/mL); MIC [10]: 0.39 µM (≈ 0.265 µg/mL); MIC [11]: 6.25 µM (≈ 4.24 µg/mL); MIC [12]: 12.5 µM (≈ 8.48 µg/mL); MIC [13]: 1.56 µM (≈ 1.06 µg/mL); MIC [14]: 6.25 µM (≈ 4.24 µg/mL)

Q: Which results are given for CCCOCc1cc2ncc(C(=O)N[C@@H](C(=O)N[C@@H]3C(=O)N4[C@@H]3SC(C)(C)[C@@H]4C(=O)O)c3ccccc3)c(OC(=O)OCC)c2cc1CC [Beisp. 5, 6-[D-(-)-α-([4'-Ethoxycarbonyloxy-6'-ethyl-7'-n-propoxymethylen-chinolinoyl-3']-carboxamido)-α-phenylacetamido]-penicillansäure-Natriumsalz]?
A: MIC [1]: 6.25 µM (≈ 4.33 µg/mL); MIC [2]: 6.25 µM (≈ 4.33 µg/mL); MIC [3]: 1.56 µM (≈ 1.08 µg/mL); MIC [4]: 1.56 µM (≈ 1.08 µg/mL); MIC [5]: 3.12 µM (≈ 2.16 µg/mL); MIC [6]: 6.25 µM (≈ 4.33 µg/mL); MIC [7]: 0.78 µM (≈ 0.54 µg/mL); MIC [8]: 3.12 µM (≈ 2.16 µg/mL); MIC [9]: 1.56 µM (≈ 1.08 µg/mL); MIC [10]: 0.78 µM (≈ 0.54 µg/mL); MIC [11]: 3.12 µM (≈ 2.16 µg/mL); MIC [12]: 6.25 µM (≈ 4.33 µg/mL); MIC [13]: 0.78 µM (≈ 0.54 µg/mL); MIC [14]: 3.12 µM (≈ 2.16 µg/mL)

Q: For CCOC(=O)Oc1c(C(=O)N[C@@H](C(=O)N[C@@H]2C(=O)N3[C@@H]2SC(C)(C)[C@@H]3C(=O)O)c2ccccc2)cnc2cc(COc3ccc(Br)cc3)c(CC)cc12 [Beisp. 2, 6-[D-(-)-α-([4'-Ethoxycarbonyloxy-6'-ethyl-7'-(4''-brom)-phenoxymethylen-chinolinoyl-3']-carboxamido)-α-phenylacetamido]-penicillansäure-Natriumsalz], which MIC [1] is on record?
A: 6.25 µM (≈ 5.04 µg/mL)

Q: What about the MIC [2] of the same compound?
A: 12.5 µM (≈ 10.1 µg/mL)

Q: And the MIC [3]?
A: 1.56 µM (≈ 1.26 µg/mL)

Q: What about the MIC [4] of the same compound?
A: 1.56 µM (≈ 1.26 µg/mL)

Q: And the MIC [5]?
A: 0.78 µM (≈ 0.628 µg/mL)

Q: What about the MIC [6] of the same compound?
A: 6.25 µM (≈ 5.04 µg/mL)

Q: And the MIC [7]?
A: 6.25 µM (≈ 5.04 µg/mL)

Q: And the MIC [8]?
A: 1.56 µM (≈ 1.26 µg/mL)

Q: And the MIC [9]?
A: 1.56 µM (≈ 1.26 µg/mL)

Q: What about the MIC [10] of the same compound?
A: 0.78 µM (≈ 0.628 µg/mL)

Q: And the MIC [11]?
A: 12.5 µM (≈ 10.1 µg/mL)

Q: And the MIC [12]?
A: 25 µM (≈ 20.1 µg/mL)

Q: What about the MIC [13] of the same compound?
A: 3.12 µM (≈ 2.51 µg/mL)

Q: What about the MIC [14] of the same compound?
A: 12.5 µM (≈ 10.1 µg/mL)
